These results are taken from patent publication US20260263384A1, “TRANSDERMAL ELLECTRICALLY CONDUCTIVE PATCH” (KIKKOMAN CORPORATION, priority 2023, published 2026).

SMILES strings stand for the structures. Structures can show the parent of a compound that is named as a salt.

Series [1] concerns skin-mimicking three-dimensional epidermal models (EPI-MODEL12, J-TEC). As to the kind of experiment: Evaluation of electro-osmosis (electro-permeation): drug permeation through three-dimensional epidermal model into reservoir solution with vs without electric current (permeation evaluation system 1), HPLC. The settings on record: ketoprofen solution pH 6.6, 20 μA for 2 hours. The protocol: A specific method for evaluating drug permeation into the skin is described. A 7 mm×7 mm carbon cloth is coated with 80 µl of a solution of multi-walled carbon nanotubes in two separate instances and dried at 60° C. The carbon cloth is washed with pure water and further dried to prepare an electrode to be provided directly on cells. Skin-mimicking three-dimensional epidermal models (EPI-MODEL12, J-TEC) are used as the cells. Phosphate-buffered saline (PBS) is used as a reservoir solution. An Ag/AgCl electrode is introduced into the reservoir solution. Subsequently, each electrode is electrically connected to a […] source meter. A drug is dissolved in an appropriate solution. The drug solution of 400 µl is added dropwise to the cells, and the carbon cloth electrode is soaked therein. First, an electrode on the cells is connected to the positive electrode, and the Ag/AgCl electrode on the reservoir solution side is connected to the negative electrode. […] In the same manner, comparative experiment of adding 400 µl of the same drug solution dropwise to the cells is performed without the application of the electric current. […] Analysis can be performed by HPLC analysis, mass analysis, or other means. The amount of permeation with the application of the electric current is compared with that without the application of the electric current. […]

For series [2] the following is noted: cited from earlier work.

With `CC(C(=O)O)c1cccc(C(=O)c2ccccc2)c1` (stereo not drawn) [ketoprofen], in series [1] (electrode on the cells connected to positive electrode), the “amount of permeation compared with a system without applying an electric current (100%)” value was 306%. Besides, in series [1] (reversed direction, electrode on the cells connected to negative electrode), the “amount of permeation relative to that measured in a system without applying an electric current (100%)” value is reported as 231%. Consider `CCCCNc1ccc(C(=O)OCCN(C)C)cc1` [tetracaine hydrochloride], for which the pKa in series [2] is given as 8.4.

As a reminder, the pKa is the pH at which an ionisable group is half protonated.
